In patent publication US12023390B2, “Isomerically pure 18F-labelled tetrahydrofolates” (MERCK PATENT GMBH, priority 2017, dated 2024):
pKd: −log10 of the molar value.

Legend:
[1] = target: FR-alpha (Homo sapiens, UniProt P15328); assay: Selectivity for FR-alpha versus oxidized folic acid derivative (summary statement)
[2] = target: Folate Receptor (Homo sapiens, UniProt P15328); conditions: cited from earlier work
[3] = Distribution coefficient (log D7.4), shake flask method; assay type: physicochemical; conditions: n-octanol / phosphate buffer pH 7.4, room temperature
Experimental: The samples were shaken for 15 min in an overhead shaker and centrifuged for 3 min at 5000 rpm to separate the two phases. Aliquots (50 μL) of both phases were added to Eppendorftubes and then, analyzed in a γ-counter (Wizard, PerkinElmer). The partition coefficient is expressed as the radio between the radioactivity concentrations (cpm/mL) of the n-octanol and the phosphate buffer phase. Values represent the mean±standard deviation of sextuples from two independent experiments.

[4] = system: FR-positive KB cells; assay: Cell uptake and internalization using FR-positive KB cells; assay type: cell-based
Experimental: (§1) In order to investigate FR-specific cell uptake and internalization, cell uptake and internalization of 6R-[^18F]1 and 6S-[^18F]1 were carried out using FR-positive KB cells. Cell uptake increased constantly over time for both diastereoisomers resulting in an uptake of about 60% (calculated per 0.3 mg of protein) of total added radioactivity after 3 h of incubation at 37° C. (FIG. 22).

[5] = Metabolite studies / in vivo stability (radio-UPLC of blood plasma, liver, urine); design: species or system mice; conditions: samples taken p.i.
Experimental: as §1
The folate radiotracer 6S/6R-[^18F]5 (1:1 ratio, 53.7-52.3 MBq; 0.62-1.15 nmol) were intravenously injected into mice in order to determine the in vivo stability of the tracers. […] Ice-cold methanol containing 10 mg/mL 2-mercaptoethanol and 0.025% (v/v) ammonium hydroxide was added to the blood plasma, homogenized liver and urine in order to precipitate the proteins.^6 After centrifugation, the supernatants of the blood plasma, liver and urine samples were analyzed by radio-UPLC (FIG. 4).

[6] = target: T1, RT16 (FR-α) (Homo sapiens, UniProt P15328); assay: Cell uptake and internalization in FR-α transfected CHO cells (RT16); assay type: cell-based
T1 construct: expressed in transfected cells; host or cells: CHO cells (RT16)
T1 sequence (P15328 25-234): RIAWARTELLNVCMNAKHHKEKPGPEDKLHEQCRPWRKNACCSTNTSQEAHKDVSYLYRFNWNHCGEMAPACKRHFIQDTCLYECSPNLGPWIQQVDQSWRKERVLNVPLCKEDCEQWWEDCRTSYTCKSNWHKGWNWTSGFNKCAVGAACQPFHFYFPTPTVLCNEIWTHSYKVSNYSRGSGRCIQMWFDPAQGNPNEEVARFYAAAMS
Experimental: (§2) The uptake and internalization of the oxidized (^18F-AzaFol) and reduced ^18F-folates (6S-isomer and 6R-isomer of ^18F-5-Me-Aza-THF) in D4 and RT16 cells which express the FR-α and FR-β, […] was studied. Both cell lines were kindly provided by Larry Matherly Wayne State University, Detroit, U.S.; Golani et al., J Med Chem, 2016, 59, 7856.
The internalized fraction of the radiotracers reached 8-10% after 1 h and increased slightly up to 9-12% after 3 h incubation.

[7] = target: T2, D4 (FR-β) (Homo sapiens, UniProt P14207); assay: Cell uptake and internalization in FR-β transfected CHO cells (D4); assay type: cell-based
T2 construct: expressed in transfected cells; host or cells: CHO cells (D4)
T2 sequence (P14207 17-230): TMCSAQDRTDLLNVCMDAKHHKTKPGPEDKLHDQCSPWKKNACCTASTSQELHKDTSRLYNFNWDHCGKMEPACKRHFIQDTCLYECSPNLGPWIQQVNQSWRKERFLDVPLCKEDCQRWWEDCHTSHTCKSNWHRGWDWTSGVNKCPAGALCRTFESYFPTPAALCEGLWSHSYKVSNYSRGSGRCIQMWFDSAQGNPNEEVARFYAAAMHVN
Experimental: as §2
When using D4 cells that express the FR-β, the uptake of ^18F-AzaFol and the 6S-isomer of the reduced radiotracer reached approximately 70% after 1 h incubation and 80% after 3 h incubation. The internalized fraction of ^18F-AzaFol and the 6S-isomer of the reduced version was 20% and 12%, respectively, after 1 h incubation. These numbers increased slightly when the incubation time was extended to 3 h. […] No change was observed after additional two hours of incubation.

[8] = system: KB tumor xenografts
[9] = system: KB tumor-bearing mice; assay: Biodistribution studies in KB tumor-bearing mice
Experimental: Biodistribution studies were performed 2 weeks after cell inoculation. The ^18F-folate radiotracers (˜5 MBq/mouse) were injected in a volume of 100 μL into a lateral tail vein. The animals were sacrificed at 30 min, 60 min and 90 min after administration of radiotracers. Selected tissues and organs were collected, weighed, and radioactivity was measured using a γ-counter. The results were listed as a percentage of the injected radioactivity per gram of tissue mass (% IA/g), using counts of a defined volume of the original injection solution measured at the same time resulting in decay corrected values.

[10] = KB tumor-bearing mice, 30 min p.i.
[11] = KB tumor-bearing mice, 30 min p.i., ratio
[12] = KB tumor-bearing mice, 60 min p.i.
[13] = KB tumor-bearing mice, 60 min p.i. & Folic Acid (100 μg 10 min prior)
[14] = KB tumor-bearing mice, 60 min p.i., ratio
[15] = KB tumor-bearing mice, 90 min p.i.
[16] = KB tumor-bearing mice, 90 min p.i., ratio
[17] = KB tumor-bearing mice, 90 min p.i., listed as 6R-form
[18] = KB tumor-bearing mice, 90 min p.i., listed as 6R-isomer

Sequence of FR-alpha (P15328 25-234, species assumed): as the sequence (P15328 25-234) above
Sequence of Folate Receptor (P15328 25-234): as above

With `CN1c2c(nc(N)[nH]c2=O)NCC1CNc1ccc(C(=O)N[C@@H](CCC(=O)O)C(=O)O)c([18F])n1` (stereo partly shown) [3′-aza-2′-[^18]fluoro-5-methyltetrahydrofolate] as the molecule, how does the “fold higher selectivity for FR-alpha than the respective oxidized folic acid derivative” value [1] read?
Its value is 50 fold.

With `Nc1nc2ncc(CNc3ccc(C(=O)N[C@H](CCC(=O)NC[C@H](N)C(=O)N[C@@H](CC(=O)O)C(=O)N[C@@H](CS)C(=O)O)C(=O)O)cc3)nc2c(=O)[nH]1` [EC20] as the molecule, how does the pKd [2] read?
Its pKd is 7.92.

Which logD7.4 [3] does the source give for “6R-3′-aza-2′-[^18F]fluoro-5-MTHF [6R-[^18F]1]” here?
The logD7.4 was −4.6 ± 0.1.

What about the internalized activity ([4]; 37° C.) of the same molecule?
Its internalized activity is “around 8%”.

What about the “cell uptake (% of total added radioactivity)” value ([4]; 3 h incubation at 37° C., calculated per 0.3 mg of protein) of the same molecule?
The value was “about 60%”.

What about the in vivo stability [5] of the same molecule?
Its in vivo stability is “Only intact parent compounds were found”.

What about the “uptake into RT16 cells (in words)” value [6] of the same molecule?
The value was “higher uptake”.

And the “uptake into D4 cells (in words)” value ([7]; D4 (FR-β) cells)?
The value was “very low”.

And the internalized fraction ([7]; D4 cells, 1 h incubation)?
Its internalized fraction is “about 1%”.

What about the uptake ([7]; D4 cells, 1 h incubation) of the same molecule?
The uptake was 3%.

What about the “PET/CT: KB tumor xenograft uptake” value ([8]; already 1 h p.i.) of the same molecule?
Its value is “High KB tumor xenograft uptake”.

What about the “PET/CT: blocking studies, uptake in all FR-positive tissues” value ([8]; folic acid injected 10 minutes prior to radiotracer) of the same molecule?
Its value is “remarkably reduced uptake”.

And the “Biodistribution: Blood” value [9, 10]?
Its value is 3.13 ± 0.31 % IA/g.

What about the “Biodistribution: Bone” value [9, 10] of the same molecule?
The value was 2.73 ± 0.14 % IA/g.

And the “Biodistribution: Feaces” value [9, 10]?
The value was 12.2 ± 3.54 % IA/g.

And the “Biodistribution: Gall Bladder” value [9, 10]?
The value was 37.5 ± 11.7 % IA/g.

And the “Biodistribution: Heart” value [9, 10]?
Its value is 2.75 ± 0.33 % IA/g.

And the “Biodistribution: Intestines” value [9, 10]?
The value was 7.68 ± 1.28 % IA/g.

What about the “Biodistribution: KB Tumor” value [9, 10] of the same molecule?
Its value is 13.3±1.80 % IA/g.

What about the “Biodistribution: Kidneys” value [9, 10] of the same molecule?
Its value is 34.5 ± 2.45 % IA/g.

And the “Biodistribution: Liver” value [9, 10]?
Its value is 14.3 ± 1.36 % IA/g.

What about the “Biodistribution: Lung” value [9, 10] of the same molecule?
Its value is 3.37 ± 0.32 % IA/g.

What about the “Biodistribution: Muscle” value [9, 10] of the same molecule?
Its value is 1.54 ± 0.13 % IA/g.

What about the “Biodistribution: Salivary glands” value [9, 10] of the same molecule?
Its value is 7.16 ± 0.51 % IA/g.

What about the “Biodistribution: Spleen” value [9, 10] of the same molecule?
Its value is 8.25 ± 0.96 % IA/g.

And the “Biodistribution: Stomach” value [9, 10]?
Its value is 2.20 ± 0.23 % IA/g.

And the Tu-to-blood [9, 11]?
Its Tu-to-blood is 4.27 ± 0.61.

What about the Tu-to-liver [9, 11] of the same molecule?
Its Tu-to-liver is 0.94 ± 0.14.

And the “Biodistribution: Kidneys” value ([9]; KB tumor-bearing mice, 30 min p.i., listed as 6R-form)?
Its value is 34.5±2.45 % IA/g.

And the “Biodistribution: Liver” value ([9]; KB tumor-bearing mice, 30 min p.i., listed as 6R-tracer)?
Its value is 14.3±1.36 % IA/g.

And the “Biodistribution: Blood” value [9, 12]?
Its value is 2.16 ± 0.25 % IA/g.

And the “Biodistribution: Bone” value [9, 12]?
The value was 2.43 ± 0.10 % IA/g.

What about the “Biodistribution: Feaces” value [9, 12] of the same molecule?
The value was 17.8 ± 5.09 % IA/g.

What about the “Biodistribution: Gall Bladder” value [9, 12] of the same molecule?
The value was 39.0 ± 22.17 % IA/g.

What about the “Biodistribution: Heart” value [9, 12] of the same molecule?
The value was 2.38 ± 0.18 % IA/g.

And the “Biodistribution: Intestines” value [9, 12]?
The value was 6.93 ± 1.06 % IA/g.

What about the “Biodistribution: KB Tumor” value [9, 12] of the same molecule?
Its value is 18.1 ± 2.86 % IA/g.

What about the “Biodistribution: Kidneys” value [9, 12] of the same molecule?
The value was 27.3 ± 3.07 % IA/g.

And the “Biodistribution: Liver” value [9, 12]?
Its value is 14.1 ± 0.80 % IA/g.

And the “Biodistribution: Lung” value [9, 12]?
The value was 2.80 ± 0.29 % IA/g.

What about the “Biodistribution: Muscle” value [9, 12] of the same molecule?
Its value is 1.36 ± 0.15 % IA/g.

What about the “Biodistribution: Salivary glands” value [9, 12] of the same molecule?
Its value is 6.49 ± 0.93 % IA/g.

What about the “Biodistribution: Spleen” value [9, 12] of the same molecule?
The value was 8.25 ± 0.88 % IA/g.

And the “Biodistribution: Stomach” value [9, 12]?
Its value is 2.35 ± 0.49 % IA/g.

And the “Biodistribution: Blood” value [9, 13]?
The value was 1.52 ± 0.43 % IA/g.

And the “Biodistribution: Bone” value [9, 13]?
Its value is 1.51 ± 0.34 % IA/g.

What about the “Biodistribution: Feaces” value [9, 13] of the same molecule?
Its value is 15.2 ± 1.75 % IA/g.

What about the “Biodistribution: Gall Bladder” value [9, 13] of the same molecule?
Its value is 26.5 ± 16.6 % IA/g.

What about the “Biodistribution: Heart” value [9, 13] of the same molecule?
The value was 1.60 ± 0.46 % IA/g.

And the “Biodistribution: Intestines” value [9, 13]?
The value was 5.23 ± 0.73 % IA/g.

What about the “Biodistribution: KB Tumor” value [9, 13] of the same molecule?
The value was 3.41 ± 0.88 % IA/g.

What about the “Biodistribution: Kidneys” value [9, 13] of the same molecule?
Its value is 4.80 ± 1.94 % IA/g.

What about the “Biodistribution: Liver” value [9, 13] of the same molecule?
Its value is 9.64 ± 1.55 % IA/g.

What about the “Biodistribution: Lung” value [9, 13] of the same molecule?
The value was 1.73 ± 0.43 % IA/g.

What about the “Biodistribution: Muscle” value [9, 13] of the same molecule?
The value was 1.05 ± 0.42 % IA/g.

And the “Biodistribution: Salivary glands” value [9, 13]?
The value was 2.61 ± 0.70 % IA/g.

What about the “Biodistribution: Spleen” value [9, 13] of the same molecule?
Its value is 3.89 ± 0.40 % IA/g.

And the “Biodistribution: Stomach” value [9, 13]?
Its value is 2.02 ± 0.52 % IA/g.

And the Tu-to-blood [9, 14]?
Its Tu-to-blood is 8.47 ± 1.62.

And the Tu-to-kidney [9, 14]?
Its Tu-to-kidney is 0.67 ± 0.14.

And the Tu-to-liver [9, 14]?
Its Tu-to-liver is 1.29 ± 0.18.

And the “Biodistribution: Blood” value [9, 15]?
Its value is 1.92 ± 0.19 % IA/g.

What about the “Biodistribution: Bone” value [9, 15] of the same molecule?
Its value is 3.53 ± 0.90 % IA/g.

And the “Biodistribution: Feaces” value [9, 15]?
Its value is 13.1 ± 6.07 % IA/g.

What about the “Biodistribution: Gall Bladder” value [9, 15] of the same molecule?
The value was 56.7 ± 13.2 % IA/g.

And the “Biodistribution: Heart” value [9, 15]?
The value was 2.39 ± 0.47 % IA/g.

And the “Biodistribution: Intestines” value [9, 15]?
The value was 8.01 ± 2.72 % IA/g.

What about the “Biodistribution: KB Tumor” value [9, 15] of the same molecule?
Its value is 23.9 ± 2.74 % IA/g.

What about the “Biodistribution: Kidneys” value [9, 15] of the same molecule?
Its value is 29.8 ± 7.46 % IA/g.

And the “Biodistribution: Liver” value [9, 15]?
The value was 16.8 ± 3.58 % IA/g.

And the “Biodistribution: Lung” value [9, 15]?
Its value is 2.92 ± 0.53 % IA/g.

And the “Biodistribution: Muscle” value [9, 15]?
Its value is 1.48 ± 0.31 % IA/g.

And the “Biodistribution: Salivary glands” value [9, 15]?
The value was 7.31 ± 1.17 % IA/g.

What about the “Biodistribution: Spleen” value [9, 15] of the same molecule?
Its value is 13.0 ± 4.14 % IA/g.

What about the “Biodistribution: Stomach” value [9, 15] of the same molecule?
Its value is 2.51 ± 0.42 % IA/g.

And the Tu-to-blood [9, 16]?
Its Tu-to-blood is 12.5 ± 1.46.

What about the Tu-to-liver [9, 16] of the same molecule?
The Tu-to-liver was 1.46 ± 0.26.

And the “Biodistribution: Kidneys” value [9, 17]?
The value was 29.8±7.46 % IA/g.

And the “Biodistribution: Liver” value [9, 17]?
Its value is 16.8±3.58 % IA/g.

What about the “Biodistribution: Salivary glands” value [9, 17] of the same molecule?
The value was 7.31±1.17 % IA/g.

And the “Biodistribution: KB Tumor” value [9, 18]?
The value was 23.9±2.74 % IA/g.

What about the “Biodistribution: Liver” value [9, 18] of the same molecule?
The value was 16.8±3.58 % IA/g.

And the “Biodistribution: Spleen” value [9, 18]?
Its value is 13.0±4.14 % IA/g.

What about the “Specificity of tumor binding” value ([9]; blocking by pre-injection of folic acid) of the same molecule?
Its value is 85%.

What about the “factor of increase of tumor-to-kidney ratio” value ([9]; from 30 min p.i. to 90 min p.i.) of the same molecule?
Its value is 2.1.
